Read-outs that look alike come from different tables or passages of the source.
Columns and labels:
[1] = Photostability under irradiation with a 150 W xenon-mercury lamp; format: physicochemical; conditions: about thirty minutes
[2] = Two-photon absorption by two-photon-induced fluorescence (TPIF); format: physicochemical
Method: (§1) The two-photon absorption properties of the compounds according to the invention were assessed using the two-photon-induced fluorescence (TPIF) technique and by means of a Titanium:Sapphire femtosecond laser source with pulses of 90 fs to 76 MHz which can be tuned to 750-840 nm.

herring testis DNA = test: Two-photon absorption (TPIF) in the presence of DNA; format: physicochemical; conditions: for two-photon spectra in presence of DNA compared with glycerol: sodium cacodylate buffer 10 mM, pH 7.3, 5 equivalents herring testis DNA, all excitation wavelengths
Method: as §1

[3] = Emission and single-photon absorption properties in glycerol or sodium cacodylate buffer; format: physicochemical
[4] = tested on: duplex DNA of 26 base pairs of self-complementary sequence (ds26); test: Single-photon absorption and fluorescence emission in the presence of DNA; format: binding; conditions: for ΦF (quantum fluorescence yield) / ε / λabs. / λem.: DNA
ds26 DNA = test: Affinity for DNA by fluorometric titration; format: binding; conditions: 10 mM sodium cacodylate buffer, pH 7.0, 100 mM NaCl
CHO K1 cells = test: Epifluorescence and confocal microscopy of fixed, treated cells; format: cell-based, Chinese hamster
Method: The CHO-K1 cells, cultured beforehand in wells, on glass supports coated with polyornithine, containing a commercially available standard culture medium, were fixed using a formaldehyde (4%) solution in PBS.
The cells were then incubated, at room temperature and for 20 minutes, in the presence of the markers or mixtures of markers to be tested (in aqueous solution) and then washed with PBS buffer (13 mM NaCl, 0.27 mM KCl, 0.15 mM KH2PO4, 0.8 mM Na2HPO4, pH 7.4) in order to remove the excess marker. […] The cells were then prepared conventionally for microscopic examination.
Epifluorescence microscopy examinations were carried out with a Nikon Eclipse E 800 microscope fitted with a 60× (1.4) lens and a Nikon DXM 1200 digital apparatus, while the confocal microscopy examinations were carried out with a Leica DM6000 microscope comprising an SP2 unit equipped with a 63× (1.4) lens and an HeNe laser for excitation of the markers.

[5] = 36 μM, 20° C.; cited from earlier work
[6] = according to the literature; cited from earlier work
[7] = 10 mM sodium cacodylate, pH 7.0, 5 μM compound, 0.5 to 5 equivalents ds26

ε ([3]; Na cacodyl.) | λabs. ([3]; Na cacodyl.) [nm] | ΦF (quantum fluorescence yield) ([3]; glyc.) | ε ([3]; glyc.) | λabs. ([3]; glyc.) [nm] | λem. ([3]; glyc.) [nm] | ΦF (quantum fluorescence yield) [4] | ε [4] | λabs. [4] [nm] | λem. [4] [nm] | Compound | two-photon spectra in presence of DNA compared with glycerol (herring testis DNA) | hypochromism caused by the presence of DNA [4, 7] | further results
– | – | – | – | – | – | – | – | – | – | CN1C(=CC=Cc2cc[n+](CCC[N+](C)(C)C)c3ccccc23)Sc2ccccc21.[I-].[I-] [TO-PRO-3, 1-(N,N,N-trimethylaminopropyl)-4-{2-[3-methyl-2,3-dihydro-(benzo-1,3-thiazole)-2-ethylidene]vinyl}quinolinium iodide, reference compound] | – | – | decrease of fluorescence emission during irradiation [1]: more than 40%
39 800 L/mol · cm | 474 | 0.112 | 37 400 L/mol · cm | 491 | 656 | 0.07 | 31 400 L/mol · cm | 509 | 665 | C[n+]1ccc(C=Cc2ccc(N(c3ccccc3)c3ccc(C=Cc4cc[n+](C)cc4)cc3)cc2)cc1.[I-].[I-] [TP-2Py, Bis[4-(2-N-methylpyridinium-4-ylvinyl)phenyl]phenylamine iodide] | identical to those previously observed in glycerol | about 20% | δ (efficient two-photon absorption section) ([2]; glyc.): 315 GM; wavelength of relative maximum of two-photon absorption ([2]; in glycerol): ~820 nm; δ (efficient two-photon absorption section) (herring testis DNA; DNA): 200 GM; molar extinction coefficient (ε) ([3]; in glycerol, at 474 nm): 37 400 L/mol·cm; shift of absorption spectra caused by the presence of DNA [4, 7]: shift towards the red region; dissociation constant Kd (ds26 DNA): of the order of the micromolar
59 000 L/mol · cm | 474 | 0.123 | 66 000 L/mol · cm | 491 | 665 | 0.021 | 51 000 L/mol · cm | 499 | 684 | C[n+]1ccc(C=Cc2ccc(N(c3ccc(C=Cc4cc[n+](C)cc4)cc3)c3ccc(C=Cc4cc[n+](C)cc4)cc3)cc2)cc1.[I-].[I-].[I-] [TP-3Py, Tris[4-(2-N-methylpyridinium-4-ylvinyl)phenyl]amine iodide] | identical to those previously observed in glycerol | about 20% | effect of irradiation on fluorescence emission [1]: scarcely modified; image quality of chromosomes (CHO K1 cells; CHO K1 cells in mitosis, 2 μM, phase contrast and confocal microscopies coupled): very high degree of sharpness and a high resolution; location of fluorescence in cells (CHO K1 cells; fixed CHO K1 cells, 2 μM compound with DAPI 3 μM, 20 minutes, epifluorescence microscopy): located exclusively in the nucleus; stability at the focal point of the microscope lens (CHO K1 cells; fixed CHO K1 cells, 2 μM, epifluorescence microscopy): very stable
– | – | – | – | – | – | – | – | – | – | CN1C(=Cc2cc[n+](C)c3ccccc23)Sc2ccccc21 [thiazole orange] | – | – | form in aqueous medium (aggregation) [5]: in the form of dimers
– | – | – | – | – | – | – | – | – | – | C(=Cc1ccc(N(c2ccc(C=Cc3ccncc3)cc2)c2ccc(C=Cc3ccncc3)cc2)cc1)c1ccncc1 [tris[4-(2-pyridin-4-ylvinyl)phenyl]amine, reference compound] | – | – | two-photon excitation maximum ([2]; in dichloromethane): around 820 nm; efficient two-photon absorption section ([2]; measurements performed by the Inventors, in dichloromethane): 90 GM; efficient two-photon absorption section [6]: 58 GM
